The test system of series [1] is mild to moderate Alzheimer's Disease. The conditions noted are these: cited from earlier work; for improvement in memory: patients with mild to moderate Alzheimer's Disease.
Series [2] deals with T1, M1 acetylcholine receptors (ml receptors in CHO cells) (Homo sapiens, UniProt P11229).
T1 sequence (P11229 1-460): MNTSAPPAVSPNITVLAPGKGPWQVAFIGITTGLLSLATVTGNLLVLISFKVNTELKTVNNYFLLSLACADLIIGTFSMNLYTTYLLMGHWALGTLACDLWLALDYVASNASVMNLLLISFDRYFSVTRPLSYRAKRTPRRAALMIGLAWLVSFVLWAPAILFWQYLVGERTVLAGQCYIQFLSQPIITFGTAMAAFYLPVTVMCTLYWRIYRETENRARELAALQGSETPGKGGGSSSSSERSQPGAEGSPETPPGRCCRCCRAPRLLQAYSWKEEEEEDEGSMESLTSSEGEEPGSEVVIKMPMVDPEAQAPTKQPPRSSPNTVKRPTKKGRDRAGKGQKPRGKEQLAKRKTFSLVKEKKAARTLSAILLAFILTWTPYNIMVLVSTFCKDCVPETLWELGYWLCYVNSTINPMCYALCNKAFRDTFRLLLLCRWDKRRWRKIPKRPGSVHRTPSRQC
Description: stimulation of phosphoinositide (PI) hydrolysis in transfected CHO cells. To be noted: 1 h, read-out: % PI Hydrolysis ml receptors in CHO cells 30 × Ki (μM), carb = 100%. Type of series: cell-based.

For the molecule `Nc1c2c(nc3ccccc13)CCCC2` [tacrine], in series [1] (especially at the higher doses where it is most effective), the adverse side effects result was “adverse side effects especially at the higher doses”. Moreover, the improvement in memory result in series [1] is reported as “improvement in memory can be shown in patients with mild to moderate Alzheimer's Disease”.

As to `Cn1cnc2c(O[C@@H]3CN4CC[C@H]3C4)nccc21` (relative stereo) [Example 1, endo-4-(1-Aza-bicyclo[2.2.1]hept-3-yloxy)-1-methyl-1H-imidazol[4,5-c]pyridine], the Emax in series [2] was 25%.

Consider `COC(=O)C1=CCCN(C)C1` [arecoline], for which the improvement in memory result in series [1] is recorded as “demonstrated memory improvement in patients with mild to moderate Alzheimer's Disease”.

With `c1ccc(Cn2cnc3c(OC4CN5CCC4CC5)nccc32)cc1` (single isomer, unassigned; (-)) [Example 7, (-)-3-(1-Benzyl-1H-imidazol[4,5-c]pyridin-4-yloxy)-1-aza-bicyclo[2,2,2]octane], the Emax in series [2] is 18.4%.

In the case of `c1ccc(Cn2cnc3c(OC4CN5CCC4CC5)nccc32)cc1` (stereo not shown) [Example 5, 3-(1-Benzyl-1H-imidazo[4,5-c]pyridin-4-yloxy)-1-aza-bicyclo[2,2,2]octane], in series [2], the Emax is 6.8%.

Consider `Cn1cnc2c(O[C@@H]3CN4CC[C@H]3C4)nccc21` (single isomer, unassigned) [Example 3, (-)-endo-4-(1-Aza-bicyclo[2.2.1]hept-3-yloxy)-1methyl-1H-imidazol[4,5-c]pyridine], for which, in series [2], the Emax amounted to 20.6%.

(Values after patent publication US5723468A, “6-membered ring fused imidazoles as muscarinic agents” (priority 1996, dated 1998).)
